Here are results for eight compounds from patent US11589588B2, “Methods of identification and use of nematicide compounds” (UNIVERSITY OF NEW HAMPSHIRE, priority 2013, dated 2023).

Common to all, as to type: in vivo
The test system of assay [1] is C. elegans. The assay is described as follows: Recovery of motility after contact with PDE inhibitor ceased. Particulars: 24 hours exposure, evaluated 24 hours after inhibitor removed. As for the experimental part:
Motility is shown relative to the control condition (i.e., motility of worms not contacted with the test drug). The black bars represent the fraction of motile worms after 24 hours of exposure to the PDE inhibitor. The grey bars represent the fraction of motile worms 24 hours after the exposure to the inhibitor ceased. The experiment was repeated three times and the data points represent the mean plus and minus the standard deviation.
(§1) The dauer state is morphologically similar to the infective states in juvenile phytoparasitic nematodes.
For the study, nematodes were exposed for 24 hours with the PDE inhibitor (at the concentration indicated in FIG. 15) and then plated out and evaluated for normal motility as described elsewhere in the Examples. […] Motility is shown relative to control motility in worms not contacted with the test drug.

Assay [2] relates to C. elegans. The assay is described as follows: Motility of dauer state C. elegans exposed to PDE inhibitors. Conditions: among several PDE inhibitors tested. As to the method:
as §1
For this study, worms were contacted with drugs and scored for motility at various time points after the drug treatment to determine how quick the motility defect occurred. Nematodes were scored at 0, 1, 2, 4, 8, and 24 hours after addition of the treatment. Concentrations were 4.9 μM cilostazol, 2.5 μM Rolipram, and 6.6 μM papaverine. […] The time is shown in hours after contact was initiated and the effect was determined by assessing the fraction of contacted works that were motile, relative to control worm motility (i.e., worms not contacted with the tested drug). Cilostazol, rolipram and papaverine were tested. […] The time is shown in hours after contact and the effect was determined by assessing the fraction of contacted works that were motile, relative to control worm motility (controls were worms not contacted with tested drug).

Assay [3] concerns C. elegans. The assay can be described thus: Egg hatching / fecundity of C. elegans continuously exposed to PDE inhibitors. Particulars: continuous exposure at concentrations maximally reducing motility; juveniles counted on Day 5; FIG. 6; experiment performed once. As to the method:
The number of newly hatched juveniles on Day 5 was counted and normalized to the reproductive success of the control condition (no inhibitor). This experiment was performed once.
To assess disruption of activities such as developmental progression leading to egg hatching in nematodes, C. elegans eggs are exposed to PDE inhibitors. The nematode eggs are exposed to a range of concentrations of family-specific PDE inhibitors, and inhibitors that prevent egg hatching are identified.
The number of hatched larvae in the treated group was compared to a control (untreated) group and the results are evaluated as a function of time up to 3 days after exposure to the PDE inhibitor.
The ability of these various PDE inhibitors to reduce the fecundity of C. elegans was also examined.

The structures appear in SMILES notation.

With `COc1ccc(Cc2nccc3cc(OC)c(OC)cc23)cc1OC` [papaverine], the “reversibility of drug effects on motility” value (from here on “reversibility”) in assay [1] is listed as “reversed after 24 hours”. The “effectiveness in reducing motility” value in assay [2] was “most effective in reducing motility”.
For `Cn1cc(-c2ccncc2)c(-c2ccc(OCc3ccc4ccccc4n3)cc2)n1` [MP10], in that order: “reversed after 24 hours” and “most effective in reducing motility”.
As to `O=C1CCc2cc(OCCCCc3nnnn3C3CCCCC3)ccc2N1` [cilostazol], the “effect on egg hatching (number of newly hatched juveniles relative to control)” value in assay [3] was “most effective in preventing egg hatching”. The “reversibility” value in assay [1] is on record as “reversed after 24 hours”. The “effectiveness in reducing motility” value in assay [2] was “most effective in reducing motility”.
As for `OCCN(CCO)c1nc(N2CCCCC2)c2nc(N(CCO)CCO)nc(N3CCCCC3)c2n1` [dipyridamole], in assay [3], the “effect on egg hatching (number of newly hatched juveniles relative to control)” value is on record as “enhanced egg hatching”.
Still for that read-out and setting: under `CCOC(=O)C1=C[C@]2(CC)CCCN3CCc4c(n1c1ccccc41)[C@@H]32` [vinpocetine] stands “most effective in preventing egg hatching”; under `CC(C)Cn1c(=O)n(C)c(=O)c2[nH]cnc21` [IBMX, 3-isobutyl-1-methylxanthine], “most effective in preventing egg hatching”.
Turning to `Cc1[nH]c(=O)c(C#N)cc1-c1ccncc1` [milrinone], the “reversibility” value in assay [1] is given as “reversed after 24 hours”. For the same compound, in assay [2], the “effectiveness in reducing motility” value is “most effective in reducing motility”.
For `COc1ccc(C2CNC(=O)C2)cc1OC1CCCC1` (centres unmarked) [rolipram], in that order: “reversed after 24 hours” and “most effective in reducing motility”.
